Experimental data from US20250312469A1 (CANGET BIOTEKPHARMA, priority 2024, published 2025).
“And” between values parts separate entries of the source, which are not always exact repeats. Equal values may be shown once.

Experiments:
DDX5 = DDX5 (Homo sapiens, UniProt P17844); assay: Isothermal titration calorimetry (ITC), Flag-DDX5; format: binding; details: from ITC KD
[1] = test system: LNCaP, DU145 and PC-3 cells; assay: MTT cell growth/viability assay in PCa cells; format: cell-based, human
Procedure: MTT assay for determining cancer cell growth viability: The MTT assay was described previously (13). […] Briefly, ˜2500 viable cells with or without genetic manipulation were plated in each well in 96-well plates. […] MTT, a colorimetric substrate, was then added to a final concentration of 0.4 mg/mL to each well. Cells in 96-well plates were further incubated in a 5% CO2 incubator at 37° C. for 4 h, and then the medium was aspirated. The MTT metabolic product formazan was solubilized by adding 200 μl of DMSO to each well. Absorbance in the relevant wells was measured at 570 nm using an Ultra Microplate Reader (Bio-Tek Instruments).

ABCG2/BCRP = target: T1, ABCG2/BCRP (Homo sapiens, UniProt Q9UNQ0); assay: ABCG2/BCRP inhibition (BCRP-MDCK, cladribine)
T1 sequence (Q9UNQ0 1-655): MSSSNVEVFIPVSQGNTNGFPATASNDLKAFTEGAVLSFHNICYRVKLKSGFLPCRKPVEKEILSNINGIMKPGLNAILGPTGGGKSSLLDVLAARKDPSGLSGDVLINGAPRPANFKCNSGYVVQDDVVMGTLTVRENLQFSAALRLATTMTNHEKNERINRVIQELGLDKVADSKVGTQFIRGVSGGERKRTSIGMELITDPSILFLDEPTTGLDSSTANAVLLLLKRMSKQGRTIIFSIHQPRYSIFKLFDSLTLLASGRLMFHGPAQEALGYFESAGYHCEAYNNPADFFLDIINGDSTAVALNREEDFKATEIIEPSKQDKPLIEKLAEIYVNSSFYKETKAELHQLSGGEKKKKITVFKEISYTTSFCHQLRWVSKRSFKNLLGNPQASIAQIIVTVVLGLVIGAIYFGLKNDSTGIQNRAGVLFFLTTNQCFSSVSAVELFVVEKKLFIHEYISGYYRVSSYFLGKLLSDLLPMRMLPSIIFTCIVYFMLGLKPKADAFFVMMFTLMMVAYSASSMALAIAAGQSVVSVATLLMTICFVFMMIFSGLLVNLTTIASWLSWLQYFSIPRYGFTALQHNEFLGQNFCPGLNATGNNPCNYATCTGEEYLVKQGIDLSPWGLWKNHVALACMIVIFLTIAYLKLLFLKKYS
Procedure: After 30 minutes the buffer was removed, replaced with fresh dosing solution/assay buffer, and time was recorded as 0. […] Each determination was performed in duplicate. […] Analytical conditions are outlined in Appendix 1.

CYP1A2 = CYP1A2 (Homo sapiens, UniProt P05177); assay: in vitro
Procedure: (§1) The CYP reaction was initiated by adding a CYP probe substrate and incubating at 37° C. for 10-20 minutes, depending on the individual CYP isoform. The reaction was terminated with the addition of 400 μL ice-cold acetonitrile (ACN). […] Positive controls were performed in parallel using a known inhibitor of the individual CYP isoform. […] The samples were then transferred to 96-well plates and analyzed by LC-MS/MS (Appendix 1).

CYP2B6 = target: T2, CYP2B6 (Homo sapiens, UniProt P20813); assay: in vitro
T2 sequence (P20813 1-491): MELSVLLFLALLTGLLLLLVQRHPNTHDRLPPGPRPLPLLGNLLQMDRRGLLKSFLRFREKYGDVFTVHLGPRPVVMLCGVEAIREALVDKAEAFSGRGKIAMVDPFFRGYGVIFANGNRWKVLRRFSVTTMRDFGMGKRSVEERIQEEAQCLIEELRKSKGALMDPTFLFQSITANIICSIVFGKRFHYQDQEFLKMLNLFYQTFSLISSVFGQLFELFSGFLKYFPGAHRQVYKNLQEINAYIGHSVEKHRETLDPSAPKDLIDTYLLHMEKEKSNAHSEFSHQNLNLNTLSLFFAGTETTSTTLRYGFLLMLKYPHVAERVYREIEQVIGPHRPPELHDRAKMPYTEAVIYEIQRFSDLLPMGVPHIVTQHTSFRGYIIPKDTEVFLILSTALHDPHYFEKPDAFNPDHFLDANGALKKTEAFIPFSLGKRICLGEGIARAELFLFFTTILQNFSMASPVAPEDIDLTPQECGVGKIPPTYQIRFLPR
Procedure: as §1

CYP3A = assay: in vitro
Procedure: as §1

in vivo = details: SCID, mouse, iv
[2] = Plasma protein binding (RED); details: both, human, % Bound of Plasma, Test Article (FL118), 37° C.
TA100 = assay: Ames Bacterial Reverse Mutation Assay

Chain of CYP1A2 (P05177 whole entry, canonical isoform): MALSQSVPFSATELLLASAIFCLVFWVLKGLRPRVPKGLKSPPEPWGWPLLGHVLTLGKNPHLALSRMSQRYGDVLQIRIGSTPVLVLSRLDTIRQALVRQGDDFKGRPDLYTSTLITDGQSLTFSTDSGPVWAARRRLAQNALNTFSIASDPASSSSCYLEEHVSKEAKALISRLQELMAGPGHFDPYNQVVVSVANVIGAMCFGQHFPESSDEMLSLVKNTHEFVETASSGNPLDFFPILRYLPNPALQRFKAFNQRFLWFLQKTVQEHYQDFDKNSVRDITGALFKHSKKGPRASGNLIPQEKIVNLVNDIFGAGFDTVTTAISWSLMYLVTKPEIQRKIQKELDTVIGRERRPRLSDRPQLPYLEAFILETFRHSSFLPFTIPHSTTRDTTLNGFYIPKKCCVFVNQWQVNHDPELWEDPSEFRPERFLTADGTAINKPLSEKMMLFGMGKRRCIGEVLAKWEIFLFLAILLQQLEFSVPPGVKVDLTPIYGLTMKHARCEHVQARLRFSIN
Chain of DDX5 (P17844 whole entry): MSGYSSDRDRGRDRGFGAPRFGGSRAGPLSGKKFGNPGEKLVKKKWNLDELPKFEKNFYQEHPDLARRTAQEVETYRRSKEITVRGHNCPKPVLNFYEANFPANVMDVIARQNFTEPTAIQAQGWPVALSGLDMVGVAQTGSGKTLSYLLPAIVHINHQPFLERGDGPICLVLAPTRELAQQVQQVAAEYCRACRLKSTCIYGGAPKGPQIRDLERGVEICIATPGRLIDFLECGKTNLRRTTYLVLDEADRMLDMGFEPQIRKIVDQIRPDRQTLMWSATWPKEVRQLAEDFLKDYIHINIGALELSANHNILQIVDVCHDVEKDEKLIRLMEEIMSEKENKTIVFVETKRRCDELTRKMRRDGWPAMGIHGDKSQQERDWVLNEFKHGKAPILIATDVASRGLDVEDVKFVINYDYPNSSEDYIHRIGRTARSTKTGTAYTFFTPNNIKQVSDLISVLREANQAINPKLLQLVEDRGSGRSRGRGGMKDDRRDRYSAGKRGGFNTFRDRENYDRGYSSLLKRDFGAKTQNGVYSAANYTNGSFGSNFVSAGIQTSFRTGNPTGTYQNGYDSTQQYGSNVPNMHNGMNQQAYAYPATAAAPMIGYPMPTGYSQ

In the case of `CCC1(O)C(=O)OCc2c1cc1n(c2=O)Cc2cc3cc4c(cc3nc2-1)OCO4` (centres unmarked) [FL118], the “FL118 binding to DDX5 versus Top1 (times stronger)” value (DDX5) is reported as “about 10”, the “cell growth inhibition in DDX5 KO DU145 cells” value ([1]; 72h MTT) is reported as “significantly increased resistance to FL118 treatment” and the “cell growth inhibition, DU145 vs LNCaP and PC-3” value ([1]; 72h MTT) is reported as “higher sensitivity to FL118-induced cell growth inhibition”. For the same compound, the “cell growth inhibition with USP2a overexpression” value ([1]; LNCaP, DU145, 72 h) was “enhances FL 118-mediated inhibition of PCa cell growth”, the “inhibition of BCRP transport of cladribine” value (ABCG2/BCRP; 1.0 μM FL118) was “does not inhibit cladribine acting as a BCRP substrate” and the “BCRP Inhibition Potential Classification” value (ABCG2/BCRP; BCRP-MDCK, cladribine as substrate, 1.0 μM FL118 or 0.5 μM Ko143) was “Negative (without inhibitor, and reduced by <50 with inhibitor: Negative)”. For the same compound, the CYP1A2 inhibition (CYP1A2; 1 μM) was “does not inhibit these 3 CYP isoforms”, the inhibition at 1 µM (CYP1A2; human, microsomes, pH 7.4) was 0.1% and the CYP2B6 inhibition (CYP2B6; 1 μM) was “does not inhibit these 3 CYP isoforms”. The inhibition at 1 µM (CYP2B6; human, microsomes, pH 7.4) was 0%, the CYP3A inhibition (CYP3A; 1 μM, testosterone probe) was “does not inhibit these 3 CYP isoforms” and the inhibition at 1 µM (CYP3A; human, microsomes, pH 7.4) was 0%. The Tmax (in vivo; FaDu tumor) was 10 min, the half-life (in vivo; FaDu tumor) was 411 min and the Tmax (in vivo; SW620 tumor) was 10 min. For the same compound, the half-life (in vivo; SW620 tumor) was 765 min, the Tmax (in vivo; plasma) was 10 min and the Vd (in vivo; plasma) was 36.8 L/kg. The clearance (in vivo; plasma) was 238 mL/min/kg, the half-life (in vivo; plasma) was 107 min and the fraction unbound at 4 h, 1 μM [2] was < 0.01. The bacterial strain mutation (TA100) was “does not induce”, the “mean revertant colonies over negative control” value (TA100; +/− S9) was “less than 2 fold” and the “Background Lawn Code” value (TA100; TA100, 0.010 μM +S9) was 1. The “Colony Counts Average” value (TA100; TA100, 0.010 μM +S9) was 92, the “Colony Counts Replicate 1-3” value (TA100; TA100, 0.010 μM +S9) was 101 and 96 and 79 and the “Background Lawn Code” value (TA100; TA100, 0.010 μM −S9) was 1. For the same compound, the “Colony Counts Average” value (TA100; TA100, 0.010 μM −S9) was 77, the “Colony Counts Replicate 1-3” value (TA100; TA100, 0.010 μM −S9) was 72 and 79 and 80 and the “Background Lawn Code” value (TA100; TA100, 0.10 μM +S9) was 1. For the same compound, the “Colony Counts Average” value (TA100; TA100, 0.10 μM +S9) was 89, the “Colony Counts Replicate 1-3” value (TA100; TA100, 0.10 μM +S9) was 96 and 74 and 98 and the “Background Lawn Code” value (TA100; TA100, 0.10 μM −S9) was 1. The “Colony Counts Average” value (TA100; TA100, 0.10 μM −S9) was 87, the “Colony Counts Replicate 1-3” value (TA100; TA100, 0.10 μM −S9) was 89 and 77 and 94 and the “Background Lawn Code” value (TA100; TA100, 1.0 μM +S9) was 1. For the same compound, the “Colony Counts Average” value (TA100; TA100, 1.0 μM +S9) was 99, the “Colony Counts Replicate 1-3” value (TA100; TA100, 1.0 μM +S9) was 105 and 106 and 87 and the “Background Lawn Code” value (TA100; TA100, 1.0 μM −S9) was 1. For the same compound, the “Colony Counts Average” value (TA100; TA100, 1.0 μM −S9) was 83 and the “Colony Counts Replicate 1-3” value (TA100; TA100, 1.0 μM −S9) was 94 and 75 and 81.
